Measured values published in patent publication US8318731B2, “Pyrrolopyrimidines” (Janssen Pharmaceutica NV, priority 2007, dated 2012).

Key:
[1] = tested on: HCT-116; experiment: Cellular proliferation assay (Alamar blue), HCT-116; type: cell-based; conditions: Homo sapiens; HCT-116 cells; 10% FCS; 72 h with compound; Alamar blue 4 h; read-out: pIC50 HCT-116 (converted)
How it was run: (§1)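 10% FCS, 37° C., 5% CO2; seed, 24 h no compound; 72 h compound; Alamar blue (resazurin 9 μg/ml, ferro-/ferricyanide 90 μM each) 4 h HCT-116, 6 h U87-MG, 24 h PC3/A2780; fluorescence 544/590 nm; normalised to controls.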

[2] = tested on: H1299; experiment: Cellular proliferation assay (Alamar blue), H1299; type: cell-based; conditions: 10% FCS, 72 h with compound, Alamar blue 4 h; for IC50: Homo sapiens, NCI-H1299, H1299 cells, read-out: pIC50 H1299 (converted)
How it was run: (§2)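 Viable cell number is determined by Alamar blue conversion after cells are treated with compound for 72 hours, following 24 hours of growth without compound in 10% FCS. The effect is calculated against control cells.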

[3] = tested on: A2780; experiment: Cellular proliferation assay (Alamar blue), A2780; type: cell-based; conditions: 10% FCS, 72 h with compound, Alamar blue 24 h; for IC50: Homo sapiens, A2780, A2780 cells, read-out: pIC50 A2780 (converted)
How it was run: as §1

[4] = tested on: PC3; experiment: Cellular proliferation assay (Alamar blue), PC3; type: cell-based; conditions: 10% FCS, 72 h with compound, Alamar blue 24 h; for IC50: Homo sapiens, PC-3, PC-3 cells, read-out: pIC50 PC-3 (converted)
How it was run: as §1

[5] = tested on: MDA-MB-231; experiment: Cellular proliferation assay (Alamar blue), MDA-MB-231; type: cell-based; conditions: 10% FCS, 72 h with compound, Alamar blue 24 h; for IC50: Homo sapiens, MDA-MB-231, MDA-MB-231 cells, read-out: pIC50 MDA/MB231 (converted)
How it was run: as §2

[6] = tested on: U87-MG; experiment: Cellular proliferation assay (Alamar blue), U87-MG; type: cell-based; conditions: Homo sapiens, U-87 MG; U87-MG cells; 10% FCS; 72 h with compound; Alamar blue 6 h; read-out: pIC50 U87MG (converted)
How it was run: as §1

[7] = target: T1, PLK4 (h) (Homo sapiens, UniProt O00444); experiment: PLK-4 human kinase scintillation proximity assay (SPA); type: biochemical; conditions: 1 μM ATP, 60 minutes at r.t., read-out: PLK4 pIC50 (converted)
T1 sequence (O00444 1-970): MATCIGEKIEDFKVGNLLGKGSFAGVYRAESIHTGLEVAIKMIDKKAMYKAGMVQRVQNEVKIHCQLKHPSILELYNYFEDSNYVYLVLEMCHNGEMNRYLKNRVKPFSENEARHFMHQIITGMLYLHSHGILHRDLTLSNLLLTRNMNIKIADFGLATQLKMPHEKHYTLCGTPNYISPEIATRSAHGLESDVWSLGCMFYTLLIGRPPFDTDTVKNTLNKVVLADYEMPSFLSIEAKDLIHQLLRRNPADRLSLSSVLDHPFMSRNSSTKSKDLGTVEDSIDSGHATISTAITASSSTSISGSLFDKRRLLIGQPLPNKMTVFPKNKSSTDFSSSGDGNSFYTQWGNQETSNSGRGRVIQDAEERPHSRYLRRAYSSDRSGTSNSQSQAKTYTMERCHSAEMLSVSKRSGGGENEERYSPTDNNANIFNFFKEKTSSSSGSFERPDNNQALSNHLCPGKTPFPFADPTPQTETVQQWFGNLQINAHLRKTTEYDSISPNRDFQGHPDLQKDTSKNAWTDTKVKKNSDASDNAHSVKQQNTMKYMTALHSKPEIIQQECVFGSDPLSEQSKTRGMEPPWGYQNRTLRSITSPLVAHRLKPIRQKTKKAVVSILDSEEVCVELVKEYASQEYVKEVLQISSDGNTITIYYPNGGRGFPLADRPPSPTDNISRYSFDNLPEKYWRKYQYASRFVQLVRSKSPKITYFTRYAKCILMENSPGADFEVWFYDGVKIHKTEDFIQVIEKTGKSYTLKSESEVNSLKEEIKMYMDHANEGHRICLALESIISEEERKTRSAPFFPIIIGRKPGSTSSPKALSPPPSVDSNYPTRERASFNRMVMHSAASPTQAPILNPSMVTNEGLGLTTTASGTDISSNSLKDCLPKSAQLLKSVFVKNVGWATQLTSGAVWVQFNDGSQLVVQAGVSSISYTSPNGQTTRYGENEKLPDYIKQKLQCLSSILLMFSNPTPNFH
How it was run: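 Human PLK4 (19 μg/ml) reacted with 10 μM biotinylated peptide, 1 μM ATP plus 2 nM [γ-33P]ATP in HEPES pH 8.0 with MgCl2, NaCl, NaF and DTT for 60 min at r.t. After an EDTA stop, phosphorylated substrate was captured on streptavidin PVT SPA beads and scintillation imaged.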

SMILES	IC50 [1]	IC50 [2]	IC50 [3]	IC50 [4]	IC50 [5]	melting point	pIC50 H1299 ([2]; H1299 cells)	IC50 [6]	pIC50 A2780 ([3]; A2780 cells)	pIC50 PC-3 ([4]; PC-3 cells)	pIC50 MDA/MB231 ([5]; MDA-MB-231 cells)	IC50 [7]
COCCOc1c(OC)cc2cc1OCC(=O)N(C)CCCN(C)Cc1c[nH]c3ncnc(c13)N2 [Compound 161]						201.4 °C						
COc1ccc(OCCOc2ccc3cc2OCC(=O)N(C)CCCN(C)Cc2c[nH]c4ncnc(c24)N3)cc1 [Compound 155]	0.0631 µM	0.126 µM	0.0316 µM	2.51 µM	2.51 µM	250.4 °C		0.251 µM				
CCOCCOc1ccc2cc1OCC(=O)N(C)CCCN(C)Cc1c[nH]c3nc(C)nc(c13)N2 [Compound 147]	> 10 µM	> 10 µM	2.51 µM	> 10 µM	> 10 µM	251 °C		> 10 µM				
COc1ccc2cc1OCCCC(=O)N(C)CC1CN(Cc3c[nH]c4ncnc(c34)N2)C1 [Compound 73]	> 10 µM	> 10 µM	> 10 µM	> 10 µM	> 10 µM	265.3 °C						0.2 µM
CN1CCCN(C)C(=O)COc2cc(ccc2NC(=O)Nc2cccc(Cl)c2)Nc2ncnc3[nH]cc(c23)C1 [Compound 67]	0.794 µM	2.51 µM	2.51 µM	> 10 µM	> 10 µM			> 10 µM				0.0631 µM
COc1ccc2cc1OCC(=O)N(C)CCCN(Cc1ccccc1)Cc1c[nH]c3ncnc(c13)N2 [Compound 61]	> 10 µM	> 10 µM	> 10 µM	> 10 µM	> 10 µM			> 10 µM				0.1 µM
COc1cc(NC(=O)COc2ccc3cc2OCC(=O)N(C)CCCN(C)Cc2cn(C)c4ncnc(c24)N3)cc(OC)c1OC [Compound 145]	> 10 µM	> 10 µM	> 10 µM	> 10 µM	> 10 µM			> 10 µM				5.01 µM
COc1ccc2cc1OCC(=O)N(C)CCN(C)CCCc1c[nH]c3ncnc(c13)N2 [Compound 60]	> 10 µM	> 10 µM	> 10 µM	> 10 µM	> 10 µM			> 10 µM				1 µM
COc1cc2cc(c1OC)CCC(=O)N(C)CCN(C)Cc1c[nH]c3ncnc(c13)N2 [Compound 47]	> 10 µM	> 10 µM	> 10 µM	> 10 µM	> 10 µM			> 10 µM				6.31 µM
COc1cc(NC(=O)COc2ccc3cc2OCC(=O)N(C)CCCN(C)Cc2c[nH]c4ncnc(c24)N3)cc(OC)c1OC [Compound 71]	2 µM	3.98 µM	1 µM	6.31 µM	5.01 µM			2.51 µM				0.0794 µM
COc1ccc2cc1OCCCNC(=O)CN(C)Cc1c[nH]c3ncnc(c13)N2 [Compound 6]	1.26 µM	1.58 µM	1.58 µM	3.98 µM	5.01 µM			1.58 µM				0.501 µM
COc1ccc2cc1OCC(=O)N[C@H](CO)CN(C)CCCc1c[nH]c3ncnc(c13)N2 [Compound 3]	> 10 µM	> 10 µM	> 10 µM	> 10 µM	> 10 µM			> 10 µM				1.58 µM

The remaining lines, values ahead:

IC50 [1]	IC50 [2]	IC50 [3]	IC50 [4]	IC50 [5]	melting point	pIC50 H1299 ([2]; H1299 cells)	IC50 [6]	pIC50 A2780 ([3]; A2780 cells)	pIC50 PC-3 ([4]; PC-3 cells)	pIC50 MDA/MB231 ([5]; MDA-MB-231 cells)	IC50 [7]	SMILES
0.0631 µM	≥ 10 µM	0.0631 µM	5.01 µM	2.51 µM	252.6 °C							CN1CCCN(C)C(=O)COc2cc(ccc2OCCSc2ccc(Cl)cc2)Nc2ncnc3[nH]cc(c23)C1 [Compound 150]
0.501 µM	1.26 µM	0.501 µM	3.16 µM	3.16 µM	232.2 °C	6.00	1 µM	6.4	5.6	5.6		CN1CCCN(C)C(=O)COc2cc(ccc2OCCN(C)c2nccs2)Nc2ncnc3[nH]cc(c23)C1 [Compound 157]
0.631 µM	2 µM	0.501 µM	3.16 µM	3.16 µM	238.4 °C		1.26 µM					CN1CCCN(C)C(=O)COc2cc(ccc2OCCNc2nccs2)Nc2ncnc3[nH]cc(c23)C1 [Compound 156]
0.398 µM	≥ 10 µM	0.316 µM	1 µM	1 µM	241 °C		0.501 µM					CN1CCCN(C)C(=O)COc2cc(ccc2OCC2CCN(Cc3ccccc3)CC2)Nc2ncnc3[nH]cc(c23)C1 [Compound 149]
0.631 µM	2 µM	0.398 µM	10 µM	> 10 µM			3.16 µM				0.0794 µM	CN1CCCN(C)C(=O)COc2cc(ccc2OCCCNc2ccc(Cl)cc2)Nc2ncnc3[nH]cc(c23)C1 [Compound 142]
> 10 µM	> 10 µM	> 10 µM	> 10 µM	> 10 µM			> 10 µM				1.26 µM	CN1CCN(C)C(=O)CCCOc2cc(ccc2N2CCOCC2)Nc2ncnc3[nH]cc(c23)C1 [Compound 40]
1 µM	3.16 µM	0.501 µM	2.51 µM	3.98 µM			1.26 µM				0.2 µM	CN1CCN(c2ccc3cc2OCC(=O)N(C)CCCN(C)Cc2c[nH]c4ncnc(c24)N3)CC1 [Compound 84]
> 10 µM	> 10 µM	5.01 µM	> 10 µM	> 10 µM			> 10 µM				0.0501 µM	CN1CCCN(C)C(=O)COc2cc(ccc2NC(=O)NCC2CC2)Nc2ncnc3[nH]cc(c23)C1 [Compound 127]
					270.9 °C						0.2 µM	CN1CCCN(C)C(=O)COc2cc(ccc2OC2CCOCC2)Nc2ncnc3[nH]cc(c23)C1 [Compound 74]
> 10 µM	> 10 µM	> 10 µM	> 10 µM	> 10 µM			> 10 µM				> 10 µM	COc1ccc2cc1CN(C)CCC(=O)N(C)CCCc1c[nH]c3ncnc(c13)N2 [Compound 4]
0.0631 µM	0.1 µM	0.0501 µM	7.94 µM	3.16 µM			2 µM				0.0501 µM	CC(C)OCCOc1ccc2cc1OCC(=O)N(C)CCCN(C)Cc1c[nH]c3ncnc(c13)N2 [Compound 131]
> 10 µM	> 10 µM	> 10 µM	> 10 µM	> 10 µM			> 10 µM				0.251 µM	COc1ccc2cc1OCC(=O)N(C1CCCCC1)CCCN(C)Cc1c[nH]c3ncnc(c13)N2 [Compound 64]
